Test results as given in the supplement of paper PMC4932681.

Tests used:
MCF-7 [1] = experiment: relative IC50 (midpoint of fitted logistic curve, plateau may be below 50% inhibition; CellTiter-Glo viability); higher = less potent; conditions: 72 h
Summary of the method: (§1)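 CellTiter-Glo viability was the readout, taken on a PHERAstar and normalised to vehicle-only and positive controls. It was measured after breast cancer cell lines and their resistant derivatives spent 72 h at 37 °C in 384-well plates containing library drugs at five concentrations spanning a 10 000-fold range, with 1 μM of the selecting drug in the medium of resistant lines. From logistic dose–response fits in the Breeze pipeline came drug sensitivity score, relative IC50 (curve midpoint) and top-dose inhibition.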

ZR-75-1 [2] = experiment: as above; conditions: 72 h
Summary of the method: as §1

BT-474 Tam1 [3] = experiment: as above; conditions: 4-OH-tamoxifen in medium 1 µM; 72 h
Summary of the method: as §1

T-47D Tam1 [4] = experiment: as above; conditions: 4-OH-tamoxifen in medium 1 µM; 72 h
Summary of the method: as §1

ZR-75-1 Tam1 [5] = experiment: as above; conditions: 4-OH-tamoxifen in medium 1 µM; 72 h
Summary of the method: as §1

T-47D Tam2 [6] = experiment: as above; conditions: 4-OH-tamoxifen in medium 1 µM; 72 h
Summary of the method: as §1

ZR-75-1 Tam2 [7] = experiment: as above; conditions: 4-OH-tamoxifen in medium 1 µM; 72 h
Summary of the method: as §1

T-47D [8] = experiment: as above; conditions: 72 h
Summary of the method: as §1

BT-474 [9] = experiment: as above; conditions: 72 h
Summary of the method: as §1

MCF-7 Tam1 [10] = experiment: as above; conditions: 4-OH-tamoxifen in medium 1 µM; 72 h
Summary of the method: as §1

MCF-7 [11] = experiment: drug sensitivity score (DSS) (DSS (dimensionless)); higher = more sensitive; extreme values may be limits of the assay; conditions: 72 h
Summary of the method: as §1

BT-474 Tam2 [12] = experiment: as above; conditions: 4-OH-tamoxifen in medium 1 µM; 72 h
Summary of the method: as §1

ZR-75-1 [13] = experiment: as above; conditions: 72 h
Summary of the method: as §1

BT-474 Tam1 [14] = experiment: as above; conditions: 4-OH-tamoxifen in medium 1 µM; 72 h
Summary of the method: as §1

T-47D Tam1 [15] = experiment: as above; conditions: 4-OH-tamoxifen in medium 1 µM; 72 h
Summary of the method: as §1

ZR-75-1 Tam1 [16] = experiment: as above; conditions: 4-OH-tamoxifen in medium 1 µM; 72 h
Summary of the method: as §1

T-47D Tam2 [17] = experiment: as above; conditions: 4-OH-tamoxifen in medium 1 µM; 72 h
Summary of the method: as §1

ZR-75-1 Tam2 [18] = experiment: as above; conditions: 4-OH-tamoxifen in medium 1 µM; 72 h
Summary of the method: as §1

T-47D [19] = experiment: as above; conditions: 72 h
Summary of the method: as §1

BT-474 [20] = experiment: as above; conditions: 72 h
Summary of the method: as §1

MCF-7 Tam1 [21] = experiment: as above; conditions: 4-OH-tamoxifen in medium 1 µM; 72 h
Summary of the method: as §1

BT-474 Tam2 [22] = experiment: relative IC50 (midpoint of fitted logistic curve, plateau may be below 50% inhibition; CellTiter-Glo viability); higher = less potent; conditions: 4-OH-tamoxifen in medium 1 µM; 72 h
Summary of the method: as §1

| relative IC50 (MCF-7 [1]; 4-OH-tamoxifen in medium 0 µM) [µM] | relative IC50 (MCF-7 [1]; 4-OH-tamoxifen in medium 1 µM) [µM] | relative IC50 (BT-474 Tam1 [3]) [µM] | relative IC50 (T-47D Tam1 [4]) [µM] | relative IC50 (T-47D Tam2 [6]) [µM] | relative IC50 (T-47D [8]; 4-OH-tamoxifen in medium 0 µM) [µM] | relative IC50 (T-47D [8]; 4-OH-tamoxifen in medium 1 µM) [µM] | relative IC50 (BT-474 [9]; 4-OH-tamoxifen in medium 0 µM) [µM] | relative IC50 (BT-474 [9]; 4-OH-tamoxifen in medium 1 µM) [µM] | relative IC50 (MCF-7 Tam1 [10]) [µM] | relative IC50 (BT-474 Tam2 [22]) [µM] | Structure (SMILES) | relative IC50 (ZR-75-1 [2]; 4-OH-tamoxifen in medium 0 µM) [µM] | relative IC50 (ZR-75-1 [2]; 4-OH-tamoxifen in medium 1 µM) [µM] | relative IC50 (ZR-75-1 Tam1 [5]) [µM] | relative IC50 (ZR-75-1 Tam2 [7]) [µM] | drug sensitivity score (MCF-7 [11]; 4-OH-tamoxifen in medium 0 µM) | drug sensitivity score (MCF-7 [11]; 4-OH-tamoxifen in medium 1 µM) | drug sensitivity score (BT-474 Tam2 [12]) | drug sensitivity score (ZR-75-1 [13]; 4-OH-tamoxifen in medium 0 µM) | drug sensitivity score (ZR-75-1 [13]; 4-OH-tamoxifen in medium 1 µM) | drug sensitivity score (BT-474 Tam1 [14]) | drug sensitivity score (T-47D Tam1 [15]) | drug sensitivity score (ZR-75-1 Tam1 [16]) | drug sensitivity score (T-47D Tam2 [17]) | drug sensitivity score (ZR-75-1 Tam2 [18]) | drug sensitivity score (T-47D [19]; 4-OH-tamoxifen in medium 0 µM) | drug sensitivity score (T-47D [19]; 4-OH-tamoxifen in medium 1 µM) | drug sensitivity score (BT-474 [20]; 4-OH-tamoxifen in medium 0 µM) | drug sensitivity score (BT-474 [20]; 4-OH-tamoxifen in medium 1 µM) | drug sensitivity score (MCF-7 Tam1 [21]) |
| --- | --- | --- | --- | --- | --- | --- | --- | --- | --- | --- | --- | --- | --- | --- | --- | --- | --- | --- | --- | --- | --- | --- | --- | --- | --- | --- | --- | --- | --- | --- |
| 0.247 | 0.331 | 0.399 | 0.171 | 0.3 | 0.154 | 0.396 | 0.374 | 0.424 | 0.387 |  | COc1cccc2c1C(=O)c1c(O)c3c(c(O)c1C2=O)C[C@@](O)(C(=O)CO)C[C@@H]3O[C@H]1C[C@H](N)[C@H](O)[C@H](C)O1 [Doxorubicin] | 0.199 | 0.214 | 0.286 | 0.144 | 5.29 | 3.47 | 0.115 | 4.96 | 6.3 | 2.96 | 6.83 | 4.65 | 4.23 | 7.21 | 6.88 | 3.36 | 3 | 3.73 | 2.46 |
|  |  |  | > 10 | > 10 | > 10 | > 10 | > 10 | > 10 | > 10 | > 10 | O=NN(CCCl)C(=O)NC1CCCCC1 [Lomustine] | > 10 | > 10 | > 10 | > 10 | 0.0319 | 0.0924 | 0 | 0 | 0 | 0 | 0 | 0 | 0 | 0 | 0 | 0 | 0 | 0 | 0 |
| > 10 | > 10 |  | > 10 | > 10 | > 10 | > 10 | > 10 | > 10 | > 10 | > 10 | Cc1cn(-c2cc(NC(=O)c3ccc(C)c(Nc4nccc(-c5cccnc5)n4)c3)cc(C(F)(F)F)c2)cn1 [Nilotinib] | > 10 | > 10 | > 10 | > 10 | 0 | 0 | 0 | 0 | 0 | 1.63 | 0 | 0 | 0 | 0 | 0 | 0 | 0 | 0 | 0 |
| > 10 |  | > 10 | > 10 | > 10 | > 10 | > 10 | > 10 | > 10 | > 10 |  | CC1(C)NC(=O)N(c2ccc([N+](=O)[O-])c(C(F)(F)F)c2)C1=O [Nilutamide] | > 10 | > 10 | > 10 | > 10 | 0 | 0.145 | 0 | 0 | 0 | 0 | 0 | 0 | 0 | 0 | 0 | 0 | 0 | 0 | 0 |
| > 40 | > 40 | > 40 | > 40 | > 40 | > 40 | > 40 | > 40 | > 40 | > 40 |  | CC[C@@H]1C(=O)OC[C@@H]1Cc1cncn1C [Pilocarpine] | > 40 | > 40 | > 40 | > 40 | 0 | 0 | 0 | 0 | 0 | 0 | 0 | 0 | 0 | 0 | 0 | 0 | 0 | 0 | 0 |
| > 1 | > 1 |  | > 1 | > 1 | > 1 | > 1 | > 1 | > 1 | > 1 | > 1 | CNC(=O)c1cc(Oc2ccc(NC(=O)Nc3ccc(Cl)c(C(F)(F)F)c3)cc2)ccn1 [Sorafenib] | > 1 | > 1 | > 1 | > 1 | 0 | 0 | 0 | 0 | 0 | 0.0104 | 0 | 0 | 0 | 0 | 0 | 0 | 0 | 0 | 0 |
| > 10 | > 10 |  | > 10 | > 10 | > 10 | > 10 | > 10 | > 10 | > 10 | > 10 | Cn1nnc2c(C(N)=O)ncn2c1=O [Temozolomide] |  | > 10 | > 10 | > 10 | 0 | 0 | 0 | 0.0165 | 0 | 0.313 | 0 | 0 | 0 | 0 | 0 | 0 | 0 | 0 | 0 |
